The record followed here is US6797819B1, “Alkaloids” (President and Fellows of Harvard College, priority 1998, dated 2004).

Entries after “also recorded” stand apart in the source; their conditions may differ.

The subject of this test is VSVG-GFP trafficking in BSC1 cells. The format is cell-based, monkey.

On to `COc1ccc2c3c1O[C@H]1C[C@@H](O)C=C[C@@]31CCN(C)C2` [galanthamine, reference compound], for which the “effect on the secretory pathway” value is “no observable effect on the secretory pathway”.
Regarding `COc1ccc(CS[C@@H]2CC(=NOCc3ccccc3)C[C@H]3Oc4c(Br)c(OCC5CC5)cc5c4[C@]32C[C@@H](CO)NC5)cc1` [secramine], the “ability to block protein trafficking from the golgi apparatus to the plasma membrane” value is on record as “block protein trafficking from the golgi apparatus to the plasma membrane”, the “inhibition of VSVG-GFP movement from the golgi apparatus to the plasma membrane” value was “potent inhibitor of VSVG-GFP movement from the golgi apparatus to the plasma membrane; also recorded: Golgi to PM Blocker” and the “inhibition of the movement of a specific cellular protein from the golgi apparatus to the plasma membrane” value is reported as “potent inhibitor of the movement of a specific cellular protein from the golgi apparatus to the plasma membrane”.
